Laboratory results published in ChEMBL document CHEMBL2021793, “Synthesis, biological evaluation and structure-activity relationships of glycyrrhetinic acid derivatives as novel anti-hepatitis B virus agents” (Bioorg Med Chem Lett, 2012).
pIC50: −log10 of the molar value.

Columns and labels:
[1] = Selectivity index, ratio of CC50 for human HepG2(2.2.15) cells to IC50 for HBV by viral DNA replication detection assay; assay type: functional
Hepatitis B virus [2] = experiment: Antiviral activity against Hepatitis B virus infected in human HepG2(2.2.15) cells assessed as reduction in viral DNA replication; assay type: functional, organism-based
Hepatitis B virus [3] = experiment: Antiviral activity against Hepatitis B virus infected in human HepG2(2.2.15) cells assessed as reduction in hepatitis B e-antigen release; assay type: functional, organism-based
Hepatitis B virus [4] = experiment: Antiviral activity against Hepatitis B virus infected in human HepG2(2.2.15) cells assessed as reduction in hepatitis B surface antigen release; assay type: functional, organism-based
[5] = Selectivity index, ratio of CC50 for human HepG2(2.2.15) cells to IC50 for HBV by hepatitis B surface antigen release detection assay; assay type: functional
[6] = Cytotoxicity against human HepG2(2.2.15) cells; assay type: cell-based
[7] = Selectivity index, ratio of CC50 for human HepG2(2.2.15) cells to IC50 for HBV by hepatitis B e-antigen release detection assay; assay type: functional

SMILES | Ratio CC50/IC50 [1] | pIC50 (Hepatitis B virus [2]) | pIC50 (Hepatitis B virus [3]) | pIC50 (Hepatitis B virus [4]) | Ratio CC50/IC50 [5] | CC50 [6] | Ratio CC50/IC50 [7]
CC1(C)[C@@H](O)CC[C@]2(C)[C@H]3C(=O)C=C4[C@@H]5C[C@@](C)(C(=O)OCc6cccc(F)c6)CC[C@]5(C)CC[C@@]4(C)[C@]3(C)CC[C@@H]12 | >67.2 | 4.71 | < 2.88 | 3.23 | >2.2 | > 1310 µM | 
CC1(C)[C@@H](O)CC[C@]2(C)[C@H]3C(=O)C=C4[C@@H]5C[C@@](C)(C(=O)OCc6ccc(S(C)(=O)=O)cc6)CC[C@]5(C)CC[C@@]4(C)[C@]3(C)CC[C@@H]12 | 48.3 | 4.67 | < 2.92 | 4.26 | 18.8 | 1030 µM | 
CC1(C)[C@@H](O)CC[C@]2(C)[C@H]3C(=O)C=C4[C@@H]5C[C@@](C)(C(=O)OCc6ccc([N+](=O)[O-])cc6)CC[C@]5(C)CC[C@@]4(C)[C@]3(C)CC[C@@H]12 | >149.2 | 5.05 | < 2.88 | 3.22 | >2.2 | > 1330 µM | 
CC1(C)[C@@H](O)CC[C@]2(C)[C@H]3C(=O)C=C4[C@@H]5C[C@@](C)(C(=O)OCc6cccc7cccnc67)CC[C@]5(C)CC[C@@]4(C)[C@]3(C)CC[C@@H]12 | >111 | 4.82 | < 2.77 | < 2.77 |  | > 1700 µM | 
CC1(C)[C@@H](O)CC[C@]2(C)[C@H]3C(=O)C=C4[C@@H]5C[C@@](C)(C(=O)OCc6cccnc6)CC[C@]5(C)CC[C@@]4(C)[C@]3(C)CC[C@@H]12 | 1.9 | 3.77 | < 2.87 | 2.97 |  | 321 µM | 
CC1(C)[C@@H](O)CC[C@]2(C)[C@H]3C(=O)C=C4[C@@H]5C[C@@](C)(C(=O)OCc6ccc(-n7cccn7)cc6)CC[C@]5(C)CC[C@@]4(C)[C@]3(C)CC[C@@H]12 | 83.6 | 4.62 | < 2.69 | 3.03 | 2.1 | 1990 µM | 
Cc1nc(COC(=O)[C@@]2(C)CC[C@]3(C)CC[C@]4(C)C(=CC(=O)[C@@H]5[C@@]6(C)CC[C@H](O)C(C)(C)[C@@H]6CC[C@]54C)[C@@H]3C2)cs1 | 4.1 | 5.04 | < 2.83 | 4.44 | 1 | 37.2 µM | 
CC1(C)[C@@H](O)CC[C@]2(C)[C@H]3CC=C4[C@@H]5C[C@@](C)(C(=O)OCC(N)=O)CC[C@]5(C)CC[C@@]4(C)[C@]3(C)CC[C@@H]12 | 7.3 | 4.19 | < 2.96 | 3.46 | 1.4 | 472 µM | 
COc1cc(/C=C/C(=O)O[C@H]2CC[C@]3(C)[C@H]4CC=C5[C@@H]6C[C@@](C)(C(=O)OCC(N)=O)CC[C@]6(C)CC[C@@]5(C)[C@]4(C)CC[C@H]3C2(C)C)cc(OC)c1OC |  | < 3.92 | 3.60 | 3.64 | >2.1 | > 481 µM | >1.9
CC1(C)[C@@H](O)CC[C@]2(C)[C@H]3C[C@H]4O[C@]45[C@@H]4C[C@@](C)(C(=O)O)CC[C@]4(C)CC[C@@]5(C)[C@]3(C)CC[C@@H]12 | 1.9 | 4.74 | < 2.74 | 4.36 |  | 35.7 µM | 
CCCC(=O)O[C@H]1CC[C@]2(C)[C@H]3C(=O)C=C4[C@@H]5C[C@@](C)(C(=O)O)CC[C@]5(C)CC[C@@]4(C)[C@]3(C)CC[C@H]2C1(C)C | 2.5 | 4.32 | 4.43 | 3.43 |  | 119 µM | 3.2
COc1cc(/C=C/C(=O)O[C@H]2CC[C@]3(C)[C@H]4C(=O)C=C5[C@@H]6C[C@@](C)(C(=O)O)CC[C@]6(C)CC[C@@]5(C)[C@]4(C)CC[C@H]3C2(C)C)cc(OC)c1OC | >9.7 | 3.92 | 3.63 | < 2.93 |  | > 1160 µM | > 5
CC1(C)[C@@H](O)CC[C@]2(C)[C@H]3C(=O)C=C4[C@@H]5C[C@@](C)(C(=O)OCCOc6ccccc6)CC[C@]5(C)CC[C@@]4(C)[C@]3(C)CC[C@@H]12 | 7.1 | 4.85 | < 2.93 | 4.24 | 1.8 | 101 µM | 
CC1(C)[C@@H](O)CC[C@]2(C)[C@H]3C(=O)C=C4[C@@H]5C[C@@](C)(C(=O)OCC(N)=O)CC[C@]5(C)CC[C@@]4(C)[C@]3(C)CC[C@@H]12 | 1.9 | 4.54 | < 2.95 | 4.40 | 1.4 | 55.3 µM | 
CC1(C)[C@@H](O)CC[C@]2(C)[C@H]3C(=O)C=C4[C@@H]5C[C@@](C)(C(=O)OCCCCCCCCO)CC[C@]5(C)CC[C@@]4(C)[C@]3(C)CC[C@@H]12 | 11.9 | 4.88 | < 2.86 | 3.84 | 1.1 | 157 µM | 
CCOC(=O)CCCOC(=O)[C@@]1(C)CC[C@]2(C)CC[C@]3(C)C(=CC(=O)[C@@H]4[C@@]5(C)CC[C@H](O)C(C)(C)[C@@H]5CC[C@]43C)[C@@H]2C1 | 1.7 | 4.51 | 4.25 | 4.42 | 1.4 | 53.3 µM | 
CC1(C)[C@@H](O)CC[C@]2(C)[C@H]3CC=C4[C@@H]5C[C@@](C)(C(=O)O)CC[C@]5(C)CC[C@@]4(C)[C@]3(C)CC[C@@H]12 | 3.4 | 4.33 | < 2.86 | 4.31 | 3.3 | 162 µM | 
CC1(C)C(=O)CC[C@]2(C)[C@H]3C(=O)C=C4[C@@H]5C[C@@](C)(C(=O)O)CC[C@]5(C)CC[C@@]4(C)[C@]3(C)CC[C@@H]12 | 2.5 | 3.72 | < 3.33 | 3.36 | 1.1 | 467 µM | 
CC(=O)O[C@H]1CC[C@]2(C)[C@H]3C(=O)C=C4[C@@H]5C[C@@](C)(C(=O)O)CC[C@]5(C)CC[C@@]4(C)[C@]3(C)CC[C@H]2C1(C)C [ACETOXOLONE] | 4.3 | 3.92 | < 3.29 | 3.00 |  | 518 µM | 
CC1(C)[C@@H](O)CC[C@]2(C)[C@H]3C(=O)C=C4[C@@H]5C[C@@](C)(C(=O)O)CC[C@]5(C)CC[C@@]4(C)[C@]3(C)CC[C@@H]12 [ENOXOLONE] | 1.4 | 4.41 | 3.88 | 4.68 | 2.6 | 55.1 µM | 
CCC(=O)O[C@H]1CC[C@]2(C)[C@H]3C(=O)C=C4[C@@H]5C[C@@](C)(C(=O)O)CC[C@]5(C)CC[C@@]4(C)[C@]3(C)CC[C@H]2C1(C)C [GLYCYRRHETINIC ACID PROPIONATE] | 2.2 | 4.35 | 4.31 | 2.87 |  | 99.6 µM | 2
C[C@H](Cn1cnc2c(N)ncnc21)OCP(=O)(O)O [TENOFOVIR ANHYDROUS] | >1973.4 | 6.05 |  |  | >1.2 | > 1760 µM | >1.4
